MIC data for three molecules are collected here from ChEMBL document CHEMBL1649239, “Cotransfer of antibiotic resistance genes and a hylEfm-containing virulence plasmid in Enterococcus faecium” (2009).

Converted amounts (≈) assume the structure as drawn. Bounds are passed on as bounds.

Holding throughout (assay type): functional
For assay [1], the system named is Enterococcus faecium. Nature of the assay: Antimicrobial activity against erythromycin-, streptomycin-resistant Enterococcus faecium A expressing hylEfm gene by agar dilution method. In general terms: Agar dilution tests growth on a series of plates holding different concentrations.
In assay [2] the test system is Enterococcus faecium. Nature of the assay: Antimicrobial activity against fusidic acid-, rifampin-resistant Enterococcus faecium TX1330RF by agar dilution method.
Assay [3] relates to Enterococcus faecium. The experiment in a line: Antimicrobial activity against erythromycin-, streptomycin-resistant Enterococcus faecium TX1330RF-A1 conjugant expressing hylEfm gene by agar dilution method.
In assay [4] the test system is Enterococcus faecium. Nature of the assay: Antimicrobial activity against vancomycin-, gentamicin-resistant Enterococcus faecium B expressing hylEfm gene by agar dilution method.
Assay [5] has as its system Enterococcus faecium. Nature of the assay: Antimicrobial activity against erythromycin-, streptomycin-, vancomycin-, gentamicin-resistant Enterococcus faecium TX1330RF-B1 conjugant expressing hylEfm gene by agar dilution method.
The subject of assay [6] is Enterococcus faecium. Nature of the assay: Antimicrobial activity against vancomycin-, gentamicin-resistant Enterococcus faecium TX1330RF-B2 conjugant expressing hylEfm gene by agar dilution method.
Assay [7] concerns Enterococcus faecium. Nature of the assay: Antimicrobial activity against vancomycin-resistant Enterococcus faecium C expressing hylEfm gene by agar dilution method.
In assay [8] the test system is Enterococcus faecium. The experiment in a line: Antimicrobial activity against pbp5 gene-deficient fusidic acid-, rifampin-resistant Enterococcus faecium D344SRF expressing hylEfm gene by agar dilution method.
Assay [9] relates to Enterococcus faecium. Nature of the assay: Antimicrobial activity against pbp5 gene-deficient vancomycin-, fusidic acid-, rifampin-resistant Enterococcus faecium D344SRF-C6 expressing hylEfm gene by agar dilution method.

For `CC1(C)S[C@@H]2[C@H](NC(=O)[C@H](N)c3ccccc3)C(=O)N2[C@H]1C(=O)O` [AMPICILLIN], the MIC in assay [1] worked out at 4 µg/mL (≈ 11.4 µM); in assay [2], 1 µg/mL (≈ 2.86 µM); in assay [3], 1 µg/mL (≈ 2.86 µM); in [4] it was 256 µg/mL (≈ 733 µM); in assay [5], 1 µg/mL (≈ 2.86 µM); in assay [6], 1 µg/mL (≈ 2.86 µM). In addition, the MIC in assay [7] is 128 µg/mL (≈ 366 µM); in assay [8], < 0.25 µg/mL; in [9] it was < 0.25 µg/mL.
On to `CC[C@H]1OC(=O)[C@H](C)[C@@H](O[C@H]2C[C@@](C)(OC)[C@@H](O)[C@H](C)O2)[C@H](C)[C@@H](O[C@@H]2O[C@H](C)C[C@H](N(C)C)[C@H]2O)[C@](C)(O)C[C@@H](C)C(=O)[C@H](C)[C@@H](O)[C@]1(C)O` [ERYTHROMYCIN], for which the minimal inhibitory concentration (MIC) in assay [1] was > 512 µg/mL; in assay [2], 0.5 µg/mL (≈ 0.681 µM); in [3] it was > 512 µg/mL; in assay [4], > 512 µg/mL; in assay [5], > 512 µg/mL; in assay [6], 0.25 µg/mL (≈ 0.341 µM). Also, the minimum inhibitory concentration (MIC) in assay [7] is > 512 µg/mL; in assay [8], 512 µg/mL (≈ 698 µM); in assay [9], > 512 µg/mL.
In the case of `CN[C@H](CC(C)C)C(=O)N[C@H]1C(=O)N[C@@H](CC(N)=O)C(=O)N[C@H]2C(=O)N[C@H]3C(=O)N[C@H](C(=O)N[C@H](C(=O)O)c4cc(O)cc(O)c4-c4cc3ccc4O)[C@H](O)c3ccc(c(Cl)c3)Oc3cc2cc(c3O[C@@H]2O[C@H](CO)[C@@H](O)[C@H](O)[C@H]2O[C@H]2C[C@](C)(N)[C@H](O)[C@H](C)O2)Oc2ccc(cc2Cl)[C@H]1O` [VANCOMYCIN], the MIC in [4] came to 512 µg/mL (≈ 353 µM); in [6], 256 µg/mL (≈ 177 µM); in assay [7] it was 256 µg/mL (≈ 177 µM).

As usually defined, the MIC is the least concentration at which growth counts as inhibited. A high value points to a need for much substance.
